The record followed here is the NIST ThermoML archive (doi:10.1016/j.jct.2011.11.025).

The nature of the series: activity coefficient (dimensionless); of the first substance listed, at infinite dilution; xn = mol fraction of the nth substance listed. To be noted: Liquid, Chromatography, x1 = 0.

Numbers after ± are expanded uncertainties.

`C1CCCCC1` [cyclohexane] + CCCCCCn1cc[n+](C)c1.N#C[B-](C#N)(C#N)C#N: the activity coefficient runs as follows: (318.15 K) 6.52 ± 0.3; (328.15 K) 6.15 ± 0.28; (338.15 K) 5.85 ± 0.27; (348.15 K) 5.58 ± 0.26; (358.15 K) 5.38 ± 0.25; (368.15 K) 5.21 ± 0.24.

`C1=CCCCC1` [cyclohexene] + CCCCCCn1cc[n+](C)c1.N#C[B-](C#N)(C#N)C#N: the activity coefficient (318.15 K) turned out to be 3.48 ± 0.16; the activity coefficient (328.15 K) was found to be 3.38 ± 0.15; the activity coefficient (338.15 K) was determined as 3.27 ± 0.15; the activity coefficient (348.15 K) came to 3.25 ± 0.15; the activity coefficient (358.15 K) is 3.17 ± 0.14; the activity coefficient (368.15 K) stood at 3.14 ± 0.14.

In the case of `C1CCCCCCC1` [cyclooctane] + CCCCCCn1cc[n+](C)c1.N#C[B-](C#N)(C#N)C#N, the activity coefficient (318.15 K) turned out to be 9.94 ± 0.46; the activity coefficient (328.15 K) is 9.29 ± 0.43; the activity coefficient (338.15 K) came out at 8.75 ± 0.4; the activity coefficient (348.15 K) is 8.33 ± 0.38; the activity coefficient (358.15 K) was 7.9 ± 0.36; the activity coefficient (368.15 K) came out at 7.57 ± 0.35.

Regarding `C1CCCC1` [cyclopentane] + CCCCCCn1cc[n+](C)c1.N#C[B-](C#N)(C#N)C#N, the activity coefficient (318.15 K) stood at 4.65 ± 0.21; the activity coefficient (328.15 K) was found to be 4.45 ± 0.2; the activity coefficient (338.15 K) turned out to be 4.28 ± 0.2; the activity coefficient (348.15 K) is 4.14 ± 0.19; the activity coefficient (358.15 K) is 4.02 ± 0.18; the activity coefficient (368.15 K) came to 3.93 ± 0.18.

On to `CCCCCCCCCC` [decane] + CCCCCCn1cc[n+](C)c1.N#C[B-](C#N)(C#N)C#N, for which the activity coefficient by setting is: (318.15 K) 43.6 ± 2; (328.15 K) 40 ± 1.9; (338.15 K) 36.4 ± 1.7; (348.15 K) 33.8 ± 1.6; (358.15 K) 31.3 ± 1.5; (368.15 K) 29.3 ± 1.4.

Turning to `CCOCC` [diethyl ether] + CCCCCCn1cc[n+](C)c1.N#C[B-](C#N)(C#N)C#N, the activity coefficient by setting is: (318.15 K) 1.59 ± 0.06; (328.15 K) 1.62 ± 0.07; (338.15 K) 1.64 ± 0.07; (348.15 K) 1.68 ± 0.07; (358.15 K) 1.71 ± 0.07; (368.15 K) 1.76 ± 0.07.

With `CC(C)OC(C)C` [diisopropyl ether] + CCCCCCn1cc[n+](C)c1.N#C[B-](C#N)(C#N)C#N, the activity coefficient by setting is: (318.15 K) 3.68 ± 0.17; (328.15 K) 3.71 ± 0.17; (338.15 K) 3.75 ± 0.17; (348.15 K) 3.8 ± 0.17; (358.15 K) 3.82 ± 0.17; (368.15 K) 3.87 ± 0.18.

Regarding `CCCOCCC` [dipropyl ether] + CCCCCCn1cc[n+](C)c1.N#C[B-](C#N)(C#N)C#N, the activity coefficient reads like this: (318.15 K) 3.82 ± 0.17; (328.15 K) 3.77 ± 0.17; (338.15 K) 3.73 ± 0.17; (348.15 K) 3.74 ± 0.17; (358.15 K) 3.72 ± 0.17; (368.15 K) 3.73 ± 0.17.

Turning to `CCO` [ethanol] + CCCCCCn1cc[n+](C)c1.N#C[B-](C#N)(C#N)C#N, the activity coefficient by setting is: (318.15 K) 1.05 ± 0.03; (328.15 K) 0.978 ± 0.025; (338.15 K) 0.912 ± 0.026; (348.15 K) 0.855 ± 0.027; (358.15 K) 0.807 ± 0.028; (368.15 K) 0.761 ± 0.029.

In the case of `CCOC(C)=O` [ethyl acetate] + CCCCCCn1cc[n+](C)c1.N#C[B-](C#N)(C#N)C#N, the activity coefficient was 0.664 ± 0.03 (318.15 K); 0.684 ± 0.03 (328.15 K); 0.701 ± 0.029 (338.15 K); 0.715 ± 0.029 (348.15 K); 0.733 ± 0.029 (358.15 K); 0.751 ± 0.029 (368.15 K).

Take `CCc1ccccc1` [ethylbenzene] + CCCCCCn1cc[n+](C)c1.N#C[B-](C#N)(C#N)C#N: the activity coefficient reads like this: (318.15 K) 1.39 ± 0.05; (328.15 K) 1.41 ± 0.05; (338.15 K) 1.43 ± 0.05; (348.15 K) 1.45 ± 0.05; (358.15 K) 1.47 ± 0.06; (368.15 K) 1.49 ± 0.06.

Consider `CCCCCCC` [heptane] + CCCCCCn1cc[n+](C)c1.N#C[B-](C#N)(C#N)C#N, for which the activity coefficient by setting is: (318.15 K) 16.5 ± 0.8; (328.15 K) 15.4 ± 0.7; (338.15 K) 14.5 ± 0.7; (348.15 K) 13.7 ± 0.6; (358.15 K) 13 ± 0.6; (368.15 K) 12.4 ± 0.6.

With `C=CCCCC` [hex-1-ene] + CCCCCCn1cc[n+](C)c1.N#C[B-](C#N)(C#N)C#N, the activity coefficient stood at 6.13 ± 0.28 (318.15 K); 5.88 ± 0.27 (328.15 K); 5.71 ± 0.26 (338.15 K); 5.58 ± 0.26 (348.15 K); 5.44 ± 0.25 (358.15 K); 5.35 ± 0.24 (368.15 K).

Regarding `CCCCCC` [hexane] + CCCCCCn1cc[n+](C)c1.N#C[B-](C#N)(C#N)C#N, the activity coefficient is, setting by setting: (318.15 K) 11.8 ± 0.5; (328.15 K) 11.2 ± 0.5; (338.15 K) 10.6 ± 0.5; (348.15 K) 10.2 ± 0.5; (358.15 K) 9.79 ± 0.45; (368.15 K) 9.53 ± 0.44.

As for `CO` [methanol] + CCCCCCn1cc[n+](C)c1.N#C[B-](C#N)(C#N)C#N, the activity coefficient (318.15 K) was found to be 0.837 ± 0.027; the activity coefficient (328.15 K) came to 0.786 ± 0.028; the activity coefficient (338.15 K) was 0.745 ± 0.029; the activity coefficient (348.15 K) was 0.704 ± 0.029; the activity coefficient (358.15 K) is 0.668 ± 0.03; the activity coefficient (368.15 K) turned out to be 0.633 ± 0.031.

As for `CCCC(=O)OC` [methyl butanoate] + CCCCCCn1cc[n+](C)c1.N#C[B-](C#N)(C#N)C#N, the activity coefficient was found to be 0.664 ± 0.03 (318.15 K); 0.684 ± 0.03 (328.15 K); 0.701 ± 0.029 (338.15 K); 0.715 ± 0.029 (348.15 K); 0.733 ± 0.029 (358.15 K); 0.751 ± 0.029 (368.15 K).

Consider `COC(C)=O` [methyl ethanoate] + CCCCCCn1cc[n+](C)c1.N#C[B-](C#N)(C#N)C#N, for which the activity coefficient amounted to 0.508 ± 0.032 (318.15 K); 0.521 ± 0.032 (328.15 K); 0.538 ± 0.032 (338.15 K); 0.55 ± 0.032 (348.15 K); 0.566 ± 0.032 (358.15 K); 0.586 ± 0.031 (368.15 K).

As for `CCC(=O)OC` [methyl propanoate] + CCCCCCn1cc[n+](C)c1.N#C[B-](C#N)(C#N)C#N, the activity coefficient came to 0.609 ± 0.031 (318.15 K); 0.628 ± 0.031 (328.15 K); 0.648 ± 0.03 (338.15 K); 0.668 ± 0.03 (348.15 K); 0.685 ± 0.03 (358.15 K); 0.705 ± 0.029 (368.15 K).

`CC1CCCCC1` [methylcyclohexane] + CCCCCCn1cc[n+](C)c1.N#C[B-](C#N)(C#N)C#N: the activity coefficient is 8.87 ± 0.41 (318.15 K); 8.35 ± 0.38 (328.15 K); 7.87 ± 0.36 (338.15 K); 7.58 ± 0.35 (348.15 K); 7.24 ± 0.33 (358.15 K); 7 ± 0.32 (368.15 K).

On to `CCCCCCCCC` [nonane] + CCCCCCn1cc[n+](C)c1.N#C[B-](C#N)(C#N)C#N, for which the activity coefficient (318.15 K) was determined as 31.4 ± 1.5; the activity coefficient (328.15 K) was found to be 28.8 ± 1.3; the activity coefficient (338.15 K) is 26.6 ± 1.2; the activity coefficient (348.15 K) amounted to 24.9 ± 1.2; the activity coefficient (358.15 K) came out at 23.2 ± 1.1; the activity coefficient (368.15 K) came out at 21.9 ± 1.
